# Values of other authors, collected in US20050163842A1, “Rosiglitazone and metformin formulations” (priority 2003, published 2005).
# Key:
# [1] = tested on: animal models of type 2 diabetes
smiles,measurement,setting,value
"CN(CCOc1ccc(CC2SC(=O)NC2=O)cc1)c1ccccn1 (stereo not drawn) [Rosiglitazone, 5-[4-[2-(N-methyl-N-(2-pyridyl)amino)ethoxy]benzyl]thiazolidine-2,4-dione]",development of overt diabetes,mouse models of diabetes; mouse models,prevent the development of overt diabetes
same,blood glucose levels and hyperinsulinemia,mouse models of diabetes; several mouse models of diabetes,reduce blood glucose levels and hyperinsulinemia
same,hypoglycemia or impaired glucose tolerance,[1],did not induce hypoglycemia or impaired glucose tolerance
